{
  "source": "patent US20260355199A1",
  "about": "“COMPOSITIONS AND METHODS FOR TREATING OR PREVENTING NONALCOHOLIC STEATOHEPATITIS (NASH), ANOREXIA, DEPRESSION, ENDOMETRIOSIS, AND OTHER DISEASES OR DISORDERS” (priority 2022, published 2026)",
  "key": {"[1]": {"tested_on": "Tet3 mRNA", "test": "Tet3 mRNA (RT-qPCR) in GT1-7 cells", "format": "cell-based, mouse", "conditions": "10 μM, 6 h", "method": "For Bobcat339 treatment (FIG. 15A and FIG. 15B), GT1-7 cells grown in 24-well plates at 2×10^5 cells/well were incubated with vehicle or Bobcat339 at a final concentration of 10 μM for 6 h, followed by RNA and protein extractions. For TET3 protein stability assay (FIG. 15B), GT1-7 cells in 24-well plates at 2×10^5 cells/well were incubated with vehicle or Bobcat339 at a final concentration of 10 μM for 3 hours, followed by addition of cycloheximide (CHX, Cell Signaling, 2112) at a final concentration of […] in the presence of 10 μM of Bobcat339. Proteins were harvested at 0, 1, 2, and 3 hours after addition of CHX. For TET3 expression restoration experiments (FIG. 15C and FIG. 15D), GT1-7 or SH-SY5Y cells seeded in 24-well plates at 2×10^5 cells/well were infected with Ad-GFP or Ad-TET3 at 4000 gc/cell. Following 16 h of infection, vehicle or Bobcat339 were added at a final concentration of 10 μM. Protein and RNA were isolated 48 h later and analyzed.\nTotal RNAs were extracted from neuronal cells or homogenized hypothalamic arcuate nucleus tissue samples using PureLink RNA Mini Kit (Ambion, 12183025). cDNA was synthesized using PrimeScript RT Reagent Kit in a 20 μl reaction containing 0.5-1 μg of total RNA. Real-time quantitative PCR was performed in a 15 μl reaction containing 0.5-1 μl of cDNA using SsoAdvanced Universal SYBR Green Supermix in a Bio-Rad iCycler. […]"}, "[2]": {"tested_on": "TET3", "test": "TET3 protein in THP-1 cells", "format": "cell-based, human", "conditions": "THP-1, 10 μM, 24 h", "method": "Bobcat339 Treatment of Cultured Cells Bobcat339 powder (Sigma-Aldrich, SML2611) was freshly dissolved in DMSO at a concentration of 5 mM and filtered through a 0.22 micron. Cells grown at a density of 80-90% were incubated in growth media with vehicle (DMSO) or Bobcat339 at a final concentration of 10 μM for 24 h, followed by RNA and protein extraction.\nCells were homogenized in situ using a pipette tip in 2×SDS-sample buffer with 10% β-mercaptoethanol at RT followed by heating at 100 °C for 5 min with occasional vortexing. The samples were loaded onto a 4-15% gradient SDS gel (Bio-rad, 456-8086) (10 μL/well) and transferred to nitrocellulose membranes, followed by Western blot analysis. The antibodies used were anti-TET3 (diluted at 1:1000, GeneTex, GTX121453 for human; diluted at 1:1000, Active Motif, 61395 for mouse), anti-TET2 (diluted at 1:1000, Proteintech, 21207-1-AP for human/mouse), anti-TGF-β1 (diluted at 1:1000, Abcam, ab215715 for human), anti-Lin28A (diluted at 1:1000, Cell Signaling, 3978S), and HRP-conjugated anti-GAPDH (dilution 1:5000; Proteintech, HRP-60004). The secondary antibody was HRP-linked Anti-rabbit IgG (dilution 1:10,000; Rockland, 611-1322)."}, "[3]": {"tested_on": "activity-based anorexia (ABA) mice", "conditions": "temporal (3 days); cited from earlier work"}},
  "note": "“Also recorded” adds a separate entry of the source.",
  "data": [
    {"molecule": "Nc1nc(=O)n(-c2cccc(-c3ccccc3)c2)cc1Cl", "note": "[Bobcat339, 4-Amino-1-[1,1′-biphenyl]-3-yl-5-chloro-2(1H)-pyrimidinone]", "values": [
      {"measurement": "Tet3 mRNA abundance", "setting": "[1]", "value": "without affecting its mRNA abundance; also recorded: without altering its mRNA abundance; also recorded: no significant difference between the two groups"},
      {"measurement": "TET3 protein level", "setting": "[2]", "value": "a decrease in TET3 at the protein level"},
      {"measurement": "food intake", "setting": "[3]", "value": "increase food intake"}
    ]}
  ]
}
